From patent US4532258A, “Certain cyclopropane carboxylic acid esters and their pesticidal use” (priority 1979, dated 1985)
Converted amounts (≈) assume the structure as drawn.

Experiments:
[1] = Fish toxicity test; type: in vivo; conditions: guppy, water, female guppies, 20° C., 50% killed, read-out: TLm (medium tolerance limit)
Description: The mixture was stirred well to prepare a test water. Ten female guppies from 3 to 4 months of age were released into the test water and maintained at 20° C. The concentration of the test compound at which 50% of the guppies were killed during the ensuring 48 hours was determined. [This concentration is referred to as TLm (medium tolerance limit, ppm)].

[2] = Light stability test (residue after exposure to ultraviolet light); type: physicochemical; conditions: UV 3600 Å, 31°-35° C.
Description: Into 2.0 ml of acetone were dissolved 80 mg of each test compound. A 5 μl portion of the solution was taken and spread on a glass plate (Micro Standard Cover Glass, 18 m/m No. 1, 200 pcs, Matsunami Glass Ind., Ltd.) and the acetone was evaporated. The specimen was exposed to ultraviolet light from a fluorescent lamp (Tokyo Shibaura Electric Co., Ltd., FL20BL, glow-type, 100 V, 24.5 W, wavelength=3600 Å) which was fixed just above the specimen at a distance of 11 cm at a temperature of 31°-35° C. for a predetermined exposure time. The test liquid was washed away with 1.0 ml of methanol containing 0.04% of dioctyl phthalate as an internal reference and high-speed liquid chromatography was carried out on the washings to determine the residual amount of the test compound.

## CC1(C)[C@H](CC(Cl)(Cl)Cl)[C@H]1C(=O)OC(C#N)c1cccc(Oc2ccccc2)c1 (relative stereo) [(7) [Trans-isomer]]
[1]
  LC50 at 48 h: 0.5 to 10 µg/mL (≈ 1.1 to 22.1 µM)

## C#CC(OC(=O)[C@@H]1[C@@H](CC(Cl)(Cl)Cl)C1(C)C)c1cccc(Oc2ccccc2)c1 (relative stereo) [(11) [Trans-isomer]]
[1]
  LC50 at 48 h: ≥ 10 µg/mL

## C#CC(OC(=O)[C@@H]1[C@H](CC(C)(Cl)Cl)C1(C)C)c1cccc(Oc2ccccc2)c1 (relative stereo) [(13) [Cis-isomer]]
[1]
  LC50 at 48 h: ≥ 10 µg/mL

## CC1(C)[C@H](C(=O)OC(C(N)=S)c2cccc(Oc3ccccc3)c2)[C@@H]1CC(Cl)(Cl)Cl (relative stereo) [(27) [Cis-isomer]]
[1]
  LC50 at 48 h: ≥ 10 µg/mL

## CC1(C)C(CC(Cl)(Cl)Cl)C1C(=O)OC(C#N)c1cccc(OC=C(Cl)Cl)c1 (stereo not drawn) [(34) [Mixture]]
[2]; exposure time 3.5 hrs.
  Residue (%): 100%
[2]; exposure time 3 days
  Residue (%): 88%
[2]; exposure time 5 days
  Residue (%): 44%

## C=CCC1=C(C)C(OC(=O)C2C(C=C(C)C)C2(C)C)CC1=O (stereo not drawn) [Allethrin, reference compound]
[2]; exposure time 3.5 hrs.
  Residue (%): 14%
[2]; exposure time 3 days
  Residue (%): 0%
